Where a name gives a salt, the structure may show the parent alone.
Key:
PRMT5/MEP50 complex = PRMT5/MEP50 complex (Homo sapiens (Human), UniProt O14744); assay: Biochemical assay: PRMT5/MEP50 methylation of histone H2A with 3H-SAM, filter plate scintillation; details: biochemical potency; read-out: PRTMT5/MEP50 IC50
Experimental: Biochemical Assay Protocol
Compounds were solubilized, and 3-fold diluted in 100% DMSO. […] Standard reactions were performed in a total volume of […] assay buffer, with histone H2A (5 μM final) as substrate. To this was added the PRMT5/MEP50 complex diluted to provide a final assay concentration of 5 nM and the compounds were allowed to preincubate for 15 to 20 minutes at room temperature. The reaction was initiated by adding S-[3H-methyl]-adenosyl-L-methionine (PerkinElmer) to final concentration of 1 μM. Following a 60 minutes incubation at 30° C., the reaction was stopped by adding 100 μL of 20% TCA. Each reaction was spotted onto filter plate (MultiScreen FB Filter Plate, Millipore), and washed 5 times with PBS buffer, Scintillation fluid was added to the filter plate and read in a scintillation counter. IC50 values were determined by fitting the data to the standard 4 parameters with Hill Slope using GraphPad Prism software.

[1] = system: Symmetric Di-Methyl Arginine (sDMA) in Granta-519 cells; assay: Western blot for symmetric di-methyl arginine (sDMA) marks in Granta cells, 3 days treatment; type: cell-based; details: Homo sapiens, 3 days
Experimental: Cell Treatment and Western Blotting for Detecting Symmetric Di-Methyl Arginine (sDMA) and Histone H3R8 Dimethyl Symmetric (H3R8me2s) Marks
Initial compounds screening in A549 cells: Compounds were dissolved in DMSO to make 10 mM stock and further diluted to 0.1, and 1 mM. A549 cells were maintained in PRMI 1640 (Corning Cellgro, Catalog #: 10-040-CV) medium supplemented with 10% v/v FBS (GE Healthcare, Catalog #: SH30910.03). One day before experiment, 1.25×10^5 cells were seeded in 6 well plate in 3 mL medium and incubated overnight. The next day, medium was changed and 3 uL of compound solution was added (1:1,000 dilution, 0.1 and 1 uM final concentration; DMSO concentration: 0.1%), and incubated for 3 days. Cells incubated with DMSO was used as a vehicle control. Cells were washed once with PBS, trypsinized in 150 uL 0.25% Trypsin (Corning, Catalog #: 25-053-CI), neutralized with 1 mL complete medium, transferred to microcentrifuge tubes and collected. Cell pellet was then resuspended in 15 uL PBS, lysed in 4% SDS, and homogenized by passing through homogenizer column (Omega Biotek, Catalog #: HCR003). Total protein concentrations were determined by BCA assay (ThermoFisher Scientific, Catalog #: 23225). Lysates were mixed with 5× Laemmli buffer and boiled for 5 min. Forty ug of total protein was separated on SDS-PAGE gels (Bio-Rad, catalog #: 4568083, 4568043), transferred to PVDF membrane, blocked with 5% dry milk (Bio-Rad, Catalog #: 1706404) in TBS with 0.1% v/v Tween 20 (TBST) for 1 hour at room temperature (RT), and incubated with primary antibodies (sDMA: Cell signaling, Catalog #: 13222, 1:3,000; H3R8me2s: Epigentek, Catalog #: A-3706-100, 1:2,000; β-Actin: Abcam, Catalog #: ab8227, 1:10,000) in 5% dry milk in TBST at 4° C. for overnight. The next day, membranes were washed with TBST, 5×5 min, and incubated withhP conjugated seconded antibody (GE Healthcare; Catalog #: NA934-1ML; 1:5,000) for 2 hours at RT, followed by 5×5 min washes with TBST, and incubation with ECL substrates (Bio-Rad, Catalog #: 1705061, 1705062). Chemiluminescent signal was captured with FluoChem HD2 imager (Proteinsimple) and analyzed by ImageJ.
Cells incubated with DMSO was used as a vehicle control. Cells were harvested and subjected to western blot analysis as described above. SmD3me2s and H3R8me2s bands were quantified by ImageJ. Signals were normalized to β-Actin and DMSO control. IC50 values were calculated using Graphpad Prism.

[2] = Granta-519, 72 h, Granta cell line

Chain of PRMT5/MEP50 complex (O14744 whole entry): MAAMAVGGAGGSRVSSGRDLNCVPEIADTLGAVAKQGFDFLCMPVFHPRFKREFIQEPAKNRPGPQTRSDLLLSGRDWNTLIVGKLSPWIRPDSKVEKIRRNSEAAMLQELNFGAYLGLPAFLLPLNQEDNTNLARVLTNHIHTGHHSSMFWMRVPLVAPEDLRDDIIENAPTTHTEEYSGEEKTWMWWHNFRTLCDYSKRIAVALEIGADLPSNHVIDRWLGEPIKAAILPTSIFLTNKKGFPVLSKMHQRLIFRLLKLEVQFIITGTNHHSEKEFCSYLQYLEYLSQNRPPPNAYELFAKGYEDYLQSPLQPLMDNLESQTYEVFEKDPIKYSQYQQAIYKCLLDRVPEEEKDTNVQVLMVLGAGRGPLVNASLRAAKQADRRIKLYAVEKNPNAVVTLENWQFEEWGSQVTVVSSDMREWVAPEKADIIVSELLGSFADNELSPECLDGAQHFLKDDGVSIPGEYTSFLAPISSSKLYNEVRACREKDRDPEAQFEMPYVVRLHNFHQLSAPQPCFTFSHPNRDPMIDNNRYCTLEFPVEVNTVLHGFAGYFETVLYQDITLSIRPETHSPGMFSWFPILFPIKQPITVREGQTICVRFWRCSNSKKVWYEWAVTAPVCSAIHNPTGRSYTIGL
Chain of PRMT5/MEP50 complex (Q9BQA1 whole entry partner): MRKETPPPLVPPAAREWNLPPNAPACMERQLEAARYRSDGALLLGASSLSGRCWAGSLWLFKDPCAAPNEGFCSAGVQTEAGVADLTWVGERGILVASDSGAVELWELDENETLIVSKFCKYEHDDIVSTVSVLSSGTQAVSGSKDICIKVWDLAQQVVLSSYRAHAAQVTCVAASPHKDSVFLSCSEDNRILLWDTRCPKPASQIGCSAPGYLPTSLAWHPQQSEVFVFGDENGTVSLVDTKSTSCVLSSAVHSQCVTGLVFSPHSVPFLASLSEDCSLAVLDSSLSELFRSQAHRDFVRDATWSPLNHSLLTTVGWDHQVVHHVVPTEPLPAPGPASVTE

SMILES	IC50 (PRMT5/MEP50 complex) [nM]	IC50 [1, 2] [nM]	IC50 ([1]; 72 h, Granta-519 cell line) [nM]
CC(c1ccc(Cl)cc1)C1O[C@@H](n2ccc3c(N)ncnc32)[C@H](O)[C@@H]1O (stereo in doubt) [Example 6-C, (2R,3R,4S,5S)-2-(4-amino-7H-pyrrolo[2,3-d]pyrimidin-7-yl)-5-(1-(4-chlorophenyl)ethyl)tetrahydrofuran-3,4-diol]	6.9	93	
Cc1cc([C@@](C)(O)[C@H]2O[C@@H](n3cnc4c(N)ncnc43)[C@H](O)[C@@H]2O)ccc1Cl [Example 2-C, (2R,3R,4S,5S)-2-(6-amino-9H-purin-9-yl)-5-((R)-1-(4-chloro-3-methylphenyl)-1-hydroxyethyl)tetrahydrofuran-3,4-diol]	13.5	13	
C[C@@](O)(c1ccc(Cl)c(Cl)c1)[C@H]1O[C@@H](n2cc(F)c3c(N)ncnc32)[C@H](O)[C@@H]1O [Example 3-C, (2R,3R,4S,5S)-2-(4-amino-5-fluoro-7H-pyrrolo[2,3-d]pyrimidin-7-yl)-5-((R)-1-(3,4-dichlorophenyl)-1-hydroxyethyl)tetrahydrofuran-3,4-diol]	0.9	3.8	
C[C@@H](c1ccc(Cl)cc1)[C@H]1O[C@@H](n2ccc3c(N)ncnc32)[C@H](O)[C@@H]1O [Example 5-C, (2R,3R,4S,5R)-2-(4-amino-7H-pyrrolo[2,3-d]pyrimidin-7-yl)-5-((S)-1-(4-chlorophenyl)ethyl)tetrahydrofuran-3,4-diolhydrochloride]		91	
C[C@@](O)(c1ccc(Cl)c(F)c1)[C@H]1O[C@@H](n2cc(F)c3c(N)ncnc32)[C@H](O)[C@@H]1O [Example 15-C, (2R,3R,4S,5S)-2-(4-amino-5-fluoro-7H-pyrrolo[2,3-d]pyrimidin-7-yl)-5-((R)-1-(4-chloro-3-fluorophenyl)-1-hydroxyethyl)tetrahydrofuran-3,4-diol]	1	1.9	
C[C@@](O)(c1ccc(Cl)s1)[C@H]1O[C@@H](n2ccc3c(N)ncnc32)[C@H](O)[C@@H]1O [Example 21-C, (2R,3R,4S,5S)-2-(4-amino-7H-pyrrolo[2,3-d]pyrimidin-7-yl)-5-((S)-1-(5-chlorothiophen-2-yl)-1-hydroxyethyl)tetrahydrofuran-3,4-diol]	0.9	7	
N/N=c1/nc[nH]c2c1ccn2[C@@H]1C[C@H]([C@H](O)c2ccc(Cl)cc2)[C@@H](O)[C@H]1O [Example 25-B, 7-[(1R,2S,3R,4R)-4-[(S)-(4-chlorophenyl)-hydroxy-methyl]-2,3-dihydroxy-cyclopentyl]-1H-pyrrolo[2,3-d]pyrimidin-4-one hydrazone hydrochloride]	47	~3000	
N/N=c1/nc[nH]c2c1ccn2[C@@H]1C[C@H]([C@H](O)c2ccc(F)c(F)c2)[C@@H](O)[C@H]1O [Example 37-B, 7-[(1R,2S,3R,4R)-4-[(S)-(3,4-difluorophenyl)-hydroxy-methyl]-2,3-dihydroxy-cyclopentyl]-1H-pyrrolo[2,3-d]pyrimidin-4-one hydrazone hydrochloride]	6.3	100000	
O/N=c1/nc[nH]c2c1ccn2[C@@H]1C[C@H]([C@H](O)c2ccc(Cl)cc2)[C@@H](O)[C@H]1O [Example 50-B, 7-[(1R,2S,3R,4R)-4-[(S)-(4-chlorophenyl)-hydroxy-methyl]-2,3-dihydroxy-cyclopentyl]-1H-pyrrolo[2,3-d]pyrimidin-4-one oxime hydrochloride]	11.7	~600	
CN(N)c1ncnc2c1ccn2[C@@H]1C[C@H](CCc2ccc3ccc(NCC4CC4)nc3c2)[C@@H](O)[C@H]1O [Example 79-B, (1S,2R,3S,5R)-3-(2-(2-((cyclopropylmethyl)amino)quinolin-7-yl)ethyl)-5-(4-(1-methylhydrazineyl)-7H-pyrrolo[2,3-d]pyrimidin-7-yl)cyclopentane-1,2-diol]	8.2	97	
CCO/N=c1\nc[nH]c2c1ccn2[C@@H]1O[C@H]([C@](C)(O)c2ccc(Cl)cc2)[C@@H](O)[C@H]1O [Example 83, 7-((2R,3R,4S)-5-((R)-1-(4-chlorophenyl)-1-hydroxyethyl)-3,4-dihydroxytetrahydrofuran-2-yl)-1,7-dihydro-4H-pyrrolo[2,3-d]pyrimidin-4-one O-ethyl oxime]			97
CNc1ccc2ccc(CC[C@H]3C[C@@H](n4ccc5/c(=N/OC)nc[nH]c54)[C@H](O)[C@@H]3O)cc2n1 [Example 84-B, 7-((1R,2S,3R,4S)-2,3-dihydroxy-4-(2-(2-(methylamino)quinolin-7-yl)ethyl)cyclopentyl)-1,7-dihydro-4H-pyrrolo[2,3-d]pyrimidin-4-one O-methyl oxime]	2.7	16	
CO/N=c1\nc[nH]c2c1ccn2[C@@H]1C[C@H](CCc2ccc3ccc(N)nc3c2)[C@@H](O)[C@H]1O [Example 85-B, 7-((1R,2S,3R,4S)-4-(2-(2-aminoquinolin-7-yl)ethyl)-2,3-dihydroxycyclopentyl)-1,7-dihydro-4H-pyrrolo[2,3-d]pyrimidin-4-one O-methyl oxime]	0.64	0.9	
CO/N=c1\nc[nH]c2c1ccn2[C@@H]1C[C@H](CCc2ccc3cc(Cl)c(N)nc3c2)[C@@H](O)[C@H]1O [Example 86-B, (Z)-7-((1R,2S,3R,4S)-4-(2-(2-amino-3-chloroquinolin-7-yl)ethyl)-2,3-dihydroxycyclopentyl)-3,7-dihydro-4H-pyrrolo[2,3-d]pyrimidin-4-one O-methyl oxime]	0.2	3	
O/N=c1\nc[nH]c2c1ccn2[C@@H]1C[C@H](CCc2ccc3ccc(NCC4CC4)nc3c2)[C@@H](O)[C@H]1O [Example 87-B, 7-((1R,2S,3R,4S)-4-(2-(2-((cyclopropylmethyl)amino)quinolin-7-yl)ethyl)-2,3-dihydroxycyclopentyl)-1,7-dihydro-4H-pyrrolo[2,3-d]pyrimidin-4-one oxime]	0.33	1.7	
CN/N=c1\nc[nH]c2c1ccn2[C@@H]1C[C@H](CCc2ccc3ccc(NCC4CC4)nc3c2)[C@@H](O)[C@H]1O [Example 91-B, (1S,2R,3S,5R)-3-(2-(2-((cyclopropylmethyl)amino)quinolin-7-yl)ethyl)-5-((Z)-4-(2-methylhydrazineylidene)-1,4-dihydro-7H-pyrrolo[2,3-d]pyrimidin-7-yl)cyclopentane-1,2-diol]	3.2	46.8	
CO/N=c1\nc[nH]c2c1ccn2[C@@H]1C[C@H]([C@H](O)c2ccc(Cl)c(Cl)c2)[C@@H](O)[C@H]1O [Example 92-B, 7-((1R,2S,3R,4R)-4-((S)-(3,4-dichlorophenyl)(hydroxy)methyl)-2,3-dihydroxycyclopentyl)-1,7-dihydro-4H-pyrrolo[2,3-d]pyrimidin-4-one O-methyl oxime]	19.9	335	
C[C@@](O)(c1ccc(Cl)c(Cl)c1)[C@H]1C[C@@H](n2ccc3/c(=N\O)nc[nH]c32)[C@H](O)[C@@H]1O [Example 94-B, 7-((1R,2S,3R,4S)-4-((S)-1-(3,4-dichlorophenyl)-1-hydroxyethyl)-2,3-dihydroxycyclopentyl)-1,7-dihydro-4H-pyrrolo[2,3-d]pyrimidin-4-one oxime]	3.4	53	
CO/N=c1/nc[nH]c2c1ccn2[C@@H]1O[C@H]([C@](C)(O)c2ccc(Cl)c(F)c2)[C@@H](O)[C@H]1O [Example 96]			142

— patent publication US11220524B2, “Selective inhibitors of protein arginine methyltransferase 5 (PRMT5)” (PRELUDE THERAPEUTICS, INCORPORATED, priority 2017, dated 2022)
